Laboratory results reported in US6864051B1, “Plant gene constructs and their use” (priority 1997, dated 2005).

Columns and labels:
35S::ATH1 Arabidopsis = assay: Rescue of 35S::ATH1 Arabidopsis seeds/seedlings on growth medium containing GA3; assay type: in vivo, Arabidopsis thaliana; conditions: growth medium containing 10^-5 M GA3 for three days
Source text: In order to gain more insight into the role of ATH1 in plant development, the full length ATH1 cDNA was fused to the constitutive 35S promoter of cauliflower mosaic virus and the 35S::ATH1 chimeric gene was transformed into Arabidopsis via the vacuum infiltration method. Six independent primary transformants could be obtained and all transgenic lines were selfed. From each independent transgenic line 40 individual seeds were germinated and scored for altered phenotypes compared to wild type plants. […] Once rescued and transferred to soil plants developed normally, except for a late flowering phenotype. Under short day conditions transgenic plants form much more rosette leaves (vegetative leaves) than wild type plants (about 40 rosette leaves and 100 days after germination, and plants are still not flowering, compared to about 30 rosette leaves in wild-type plants until flowering). Under LD conditions in most of these plants a partial generative to vegetative reversion occurs, shown by the formation of aerial rosettes (vegetative leaves) on the inflorescence stem. Plants (C24 ecotype) containing an extra copy of the ATH1 cDNA under control of the Hsp18.2 heat shock promoter (HspHlB plants) also show a late-flowering phenotype. […]

[1] = tested on: tobacco plants overexpressing ATH1; assay: Foliar application (spraying) of GA3 to tobacco plants overexpressing ATH1; assay type: in vivo, Nicotiana tabacum; conditions: 35S::ATH1 tobacco; for late-flowering phenotype of ATH1 overexpressing tobacco after GA spraying: foliar GA3 spraying, data not shown
Description: Tobacco plants (Nicotiana tabacum L. cv. Samsun NN) were transformed using the leaf disk procedure (Horsch et al., 1985). Transgenic plants were selected on MS-medium (Murashige and Skoog, 1962) containing […] kanamycin and 2% sucrose. After transfer to soil plants were grown in a greenhouse at 22° C. under a light regime of 16 hours daylight when necessary supplemented with artificial light. The effects of gibberellin (GA) were tested by foliar applications (spraying) of 100 mM GA3 in a solution containing 100 ml/l of Triton X-100. Control plants were sprayed with a solution containing only 100 ml/l of Triton X-100. Spraying began 60 days after sowing when the wild-type plants were approximately 5 cm tall and the 35S CaMV::ATH1 plants approximately 2.5 cm tall, and continued at 3- to 4-day intervals. Plant height was measured every 3 to 4 days and this will be continued until the onset of flowering, as determined by the appearance of flower primordia.

Structure (SMILES): C=C1C[C@]23C[C@@]1(O)CC[C@H]2[C@@]12C=C[C@H](O)[C@@](C)(C(=O)O1)[C@H]2[C@@H]3C(=O)O [GA3, gibberellin A3]
- poor germination and arrest in seedling stage of 35S::ATH1 Arabidopsis (35S::ATH1 Arabidopsis): could be overcome
- late-flowering phenotype of ATH1 overexpressing tobacco after GA spraying [1]: holds also true
- late-flowering phenotype of ATH1 overexpressing tobacco after GA spraying ([1]; listed as GA): rescue
- stem length (plant height) of ATH1 overexpressing tobacco after GA3 ([1]; spraying of 100 mM GA3 at three to four day intervals): complete restoration of the wild-type stem length
